The record followed here is PubChem BioAssay (NCI).

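Exposure lasted 48 hours, with cells grown in 96-well plates and compounds tested at five concentrations. GI50 is the concentration that inhibits growth by half. TGI marks complete inhibition of growth.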 Some results are limits rather than exact numbers.

Test systems include CAKI-1 renal; COLO 205 colon; HOP-62 NSCLC; HOP-92 NSCLC; MALME-3M melanoma; NCI/ADR-RES ovarian; OVCAR-4 ovarian; OVCAR-8 ovarian; PC-3 prostate; SF-268 CNS; SK-MEL-28 melanoma; SNB-19 CNS; SNB-75 CNS; SR leukemia; SK-MEL-5 melanoma.
What all share (assay): inhibition of tumour cell growth, NCI panel, 48 h

For the molecule `O=C1/C(=C/c2cccc([N+](=O)[O-])c2)Cc2ccccc21`, the TGI with CAKI-1 renal, with COLO 205 colon, in the test with HOP-62 NSCLC, in the test with HOP-92 NSCLC, in the test with MALME-3M melanoma and in the test with NCI/ADR-RES ovarian was greater than 100 µM in each case. The TGI in the test with OVCAR-4 ovarian, with OVCAR-8 ovarian, in the test on PC-3 prostate, with SF-268 CNS, in the test with SK-MEL-28 melanoma and in the test with SNB-19 CNS was greater than 100 µM in each case. For the same molecule, the TGI with SNB-75 CNS and with SR leukemia was greater than 100 µM each time.
Consider `CC(C)(Cl)C(Cl)CC/C(CBr)=C(\Cl)CBr` (stereo not drawn), for which the TGI with CAKI-1 renal amounted to 7.08 µM; with COLO 205 colon, 8.1 µM; with HOP-62 NSCLC, 4.91 µM; with HOP-92 NSCLC it was 3.63 µM; in the test on MALME-3M melanoma it was 4.83 µM; in the test on NCI/ADR-RES ovarian it was 7.9 µM. The TGI was found to be 2.9 µM in the test with OVCAR-4 ovarian; 3.92 µM in the test with OVCAR-8 ovarian; 8.56 µM with PC-3 prostate; 7.67 µM in the test with SF-268 CNS; 4.38 µM with SK-MEL-28 melanoma; 3.74 µM in the test with SK-MEL-5 melanoma. Moreover, the TGI was 29.2 µM with SNB-19 CNS and 4.85 µM with SNB-75 CNS.
With `C=C1C(=O)O[C@H]2C1C[C@H](O)/C(C)=C/CC[C@@]1(C)O[C@H]21` (stereo partly drawn), the TGI in the test on CAKI-1 renal came to 28.4 µM; in the test with COLO 205 colon, 18.2 µM; in the test with HOP-62 NSCLC, 91.5 µM; with HOP-92 NSCLC it was 33 µM; with MALME-3M melanoma, 19.5 µM; with NCI/ADR-RES ovarian, 33.7 µM. Also, the TGI in the test on OVCAR-4 ovarian was 30.2 µM; with OVCAR-8 ovarian, 37.6 µM; with SF-268 CNS, 74.5 µM; with SK-MEL-28 melanoma, 38.7 µM; in the test on SK-MEL-5 melanoma it was 22.6 µM; with SNB-19 CNS, greater than 100 µM. Also, the TGI with SNB-75 CNS was greater than 100 µM; in the test on SR leukemia it was 30.9 µM.
In the case of `CC(C)(C)C1CCC2c3c([nH]c4ccccc34)C3C(=O)N(c4cc(Cl)ccc4Cl)C(=O)C3C2C1` (stereo not drawn), the TGI with CAKI-1 renal, with COLO 205 colon, in the test on HOP-62 NSCLC, with HOP-92 NSCLC, with MALME-3M melanoma and in the test with NCI/ADR-RES ovarian was greater than 100 µM each time. In addition, the TGI with OVCAR-8 ovarian, in the test on PC-3 prostate, with SK-MEL-5 melanoma and in the test on SNB-19 CNS was greater than 100 µM throughout.
For `Cc1nc2c(n1Cc1ccc(F)cc1)C(=O)c1ccccc1C2=O`, the TGI is greater than 100 µM with COLO 205 colon; greater than 100 µM in the test with HOP-62 NSCLC; 31.7 µM in the test on MALME-3M melanoma; greater than 100 µM in the test on OVCAR-4 ovarian; greater than 100 µM in the test with OVCAR-8 ovarian; greater than 100 µM with SF-268 CNS. Further, the TGI with SK-MEL-28 melanoma is greater than 100 µM; with SK-MEL-5 melanoma it was 24.7 µM; in the test on SNB-19 CNS it was greater than 100 µM; in the test with SNB-75 CNS it was greater than 100 µM; in the test on SR leukemia, greater than 100 µM.
For `COc1ccccc1NC(=O)C(=O)C(c1cnc2ccc([N+](=O)[O-])cc2n1)[N+](=O)[O-]` (stereo not drawn), the TGI in the test with CAKI-1 renal, in the test on COLO 205 colon, in the test on HOP-62 NSCLC, with HOP-92 NSCLC, in the test with MALME-3M melanoma and in the test on OVCAR-4 ovarian was greater than 100 µM each time. Besides, the TGI in the test on OVCAR-8 ovarian, in the test with SF-268 CNS, in the test on SK-MEL-28 melanoma, in the test with SK-MEL-5 melanoma, with SNB-19 CNS and in the test on SNB-75 CNS was greater than 100 µM in each case. Further, in the test with SR leukemia, the TGI is greater than 100 µM.
Consider `CCCCCCCC(=O)OC(COC(=O)Cc1ccccc1)COC(=O)C(C)(C)C` (stereo not drawn), for which the TGI in the test with CAKI-1 renal, in the test on COLO 205 colon, in the test on HOP-62 NSCLC, with HOP-92 NSCLC, with MALME-3M melanoma and in the test with OVCAR-4 ovarian was greater than 100 µM throughout. The TGI in the test on OVCAR-8 ovarian, with SF-268 CNS, in the test on SK-MEL-28 melanoma, with SK-MEL-5 melanoma, in the test on SNB-19 CNS and in the test on SR leukemia was greater than 100 µM throughout.
`CC(C)(CN1CCCCC1)C(=O)CC(SCCS(=O)(=O)O)c1ccccc1` (stereo not drawn): the TGI came to 34.9 µM in the test with CAKI-1 renal; 27.6 µM with COLO 205 colon; 62.1 µM with HOP-62 NSCLC; 25.3 µM in the test on HOP-92 NSCLC; 33.3 µM in the test on MALME-3M melanoma; 70.6 µM in the test with NCI/ADR-RES ovarian. Further, the TGI in the test on OVCAR-4 ovarian is 49.4 µM; in the test on OVCAR-8 ovarian, 65 µM; with PC-3 prostate, 77.1 µM; with SF-268 CNS, 65.8 µM; in the test on SK-MEL-5 melanoma, 31.4 µM; with SNB-19 CNS it was 54.2 µM. The TGI is 54.9 µM in the test on SNB-75 CNS and 13.9 µM in the test with SR leukemia.
Consider `N#C/C(=C\c1ccccc1F)C(=O)c1ccccc1`, for which the TGI with CAKI-1 renal, in the test on COLO 205 colon, in the test on HOP-62 NSCLC, in the test with HOP-92 NSCLC, in the test on MALME-3M melanoma and in the test with OVCAR-4 ovarian was greater than 100 µM throughout. The TGI with OVCAR-8 ovarian, with SF-268 CNS, in the test on SK-MEL-28 melanoma, with SK-MEL-5 melanoma, in the test with SNB-19 CNS and in the test on SR leukemia was greater than 100 µM each time.
For `COc1cc(Cn2c3ccccc3c3cc(C)cc(OC)c32)cc2c1[nH]c1ccccc12`, the TGI in the test on COLO 205 colon was greater than 25 µM; with HOP-62 NSCLC, 17.4 µM; with HOP-92 NSCLC, greater than 25 µM; in the test on MALME-3M melanoma, greater than 25 µM; in the test with OVCAR-8 ovarian, greater than 25 µM; in the test with SF-268 CNS it was greater than 25 µM. Besides, the TGI in the test with SK-MEL-28 melanoma, in the test with SK-MEL-5 melanoma, in the test on SNB-19 CNS and in the test with SR leukemia was greater than 25 µM each time. Moreover, the GI50 was 6.63 µM in the test on HOP-62 NSCLC, 5.39 µM in the test on HOP-92 NSCLC, 17.5 µM in the test on SF-268 CNS and 16.6 µM in the test with SR leukemia.
